According to patent US10526336B2, “Fused heteroaryl derivatives as orexin receptor antagonists” (Merck Sharp & Dohme Corp., priority 2014, dated 2020):

Target: human orexin-2 receptor (Homo sapiens (Human), UniProt O43614)
Assay: FLIPR Ca2+ Flux Assay, orexin-2 receptor antagonism in CHO cells
Assay type: cell-based
Details: CHO cells expressing the human orexin-2 receptor; agonist 70 pM Ala-6,12 orexin-A; read-out: hOX2 FLIPR IC50
Description: The utility of the compounds in accordance with the present invention as orexin receptor OX1R and/or OX2R antagonists may be readily determined without undue experimentation by methodology well known in the art, including the “FLIPR Ca^2+ Flux Assay” (Okumura et al., Biochem. Biophys. Res. Comm. 280:976-981, 2001). In a typical experiment the OX1 and OX2 receptor antagonistic activity of the compounds of the present invention was determined in accordance with the following experimental method. For intracellular calcium measurements, Chinese hamster ovary (CHO) cells expressing the rat orexin-1 receptor or the human orexin-2 receptor, are grown in Iscove's modified DMEM containing 2 mM L-glutamine, […], 1% hypoxanthine-thymidine supplement, 100 U/ml penicillin, 100 μg/ml streptomycin and 10% heat-inactivated fetal calf serum (FCS). The cells are seeded at 20,000 cells/well into Becton-Dickinson black 384-well clear bottom sterile plates coated with poly-D-lysine. All reagents are from GIBCO-Invitrogen Corp. The seeded plates are incubated overnight at 37° C. and 5% CO2. Ala-6,12 human orexin-A as the agonist is prepared as a 1 mM stock solution in 1% bovine serum albumin (BSA) and diluted in assay buffer (HBSS containing 20 mM HEPES, 0.1% BSA and 2.5 mM probenecid, pH7.4) for use in the assay at a final concentration of 70 pM. Test compounds are prepared as 10 mM stock solution in DMSO, then diluted in 384-well plates, first in DMSO, then assay buffer. On the day of the assay, cells are washed 3 times with 100 μl assay buffer and then incubated for 60 min (37° C., 5% CO2) in 60 μl assay buffer containing […] Fluo-4AM ester, 0.02% pluronic acid, and 1% BSA. The dye loading solution is then aspirated and cells are washed 3 times with 100 μl assay buffer. 30 μl of that same buffer is left in each well. Within the Fluorescent Imaging Plate Reader (FLIPR, Molecular Devices), test compounds are added to the plate in a volume of 25 μl, incubated for 5 min and finally 25 μl of agonist is added. Fluorescence is measured for each well at 1 second intervals for 5 minutes and the height of each fluorescence peak is compared to the height of the fluorescence peak induced by 70 pM Ala-6,12 orexin-A with buffer in place of antagonist. For each antagonist, IC50 value (the concentration of compound needed to inhibit 50% of the agonist response) is determined. Alternatively, compound potency can be assessed by a radioligand binding assay (described in Bergman et. al. Bioorg. Med. Chem. Lett. 2008, 18, 1425-1430) in which the inhibition constant (Ki) is determined in membranes prepared from CHO cells expressing either the OX1 or OX2 receptor. The intrinsic orexin receptor antagonist activity of a compound which may be used in the present invention may be determined by these assays.

human orexin-2 receptor, sequence (O43614 whole entry): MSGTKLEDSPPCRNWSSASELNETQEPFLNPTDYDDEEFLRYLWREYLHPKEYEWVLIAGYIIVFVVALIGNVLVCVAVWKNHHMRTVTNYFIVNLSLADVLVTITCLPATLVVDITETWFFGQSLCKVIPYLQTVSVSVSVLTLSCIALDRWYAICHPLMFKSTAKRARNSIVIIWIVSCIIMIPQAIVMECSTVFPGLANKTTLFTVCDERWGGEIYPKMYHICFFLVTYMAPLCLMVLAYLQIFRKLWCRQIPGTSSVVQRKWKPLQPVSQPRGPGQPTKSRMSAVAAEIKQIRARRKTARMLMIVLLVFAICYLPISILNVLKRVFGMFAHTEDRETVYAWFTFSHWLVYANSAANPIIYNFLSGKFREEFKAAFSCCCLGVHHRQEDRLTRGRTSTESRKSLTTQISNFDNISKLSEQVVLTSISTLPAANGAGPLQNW

| SMILES | IC50 |
| --- | --- |
| C[C@@H]1CC[C@@H](Oc2nccn3ccnc23)CN1C(=O)c1ccccc1-n1nccn1 [Example 1, (2-(2H-1,2,3-triazol-2-yl)phenyl)((2R,5R)-5-(imidazo[1,2-a]pyrazin-8-yloxy)-2-methylpiperidin-1-yl)methanone] | 35.8 nM |
| C[C@@H]1CC[C@@H](Oc2nccn3ccnc23)CN1C(=O)c1ccccc1CS(C)(=O)=O [Example 2, ((2R,5R)-5-(imidazo[1,2-a]pyrazin-8-yloxy)-2-methylpiperidin-1-yl)(2-((methylsulfonyl)methyl)phenyl)methanone] | 59 nM |
| C[C@@H]1CC[C@@H](Oc2nccn3ccnc23)CN1C(=O)c1ccccc1CC(F)(F)F [Example 3, ((2R,5R)-5-(imidazo[1,2-α]pyrazin-8-yloxy)-2-methylpiperidin-1-yl)(2-(2,2,2-trifluoroethyl)phenyl)methanone] | 50.4 nM |
| CCCc1ccccc1C(=O)N1C[C@H](Oc2nccn3ccnc23)CC[C@H]1C [Example 4, ((2R,5R)-5-(imidazo[1,2-a]pyrazin-8-yloxy)-2-methylpiperidin-1-yl)(2-propylphenyl)methanone] | 31.9 nM |
| C[C@@H]1CC[C@@H](Sc2nccn3ccnc23)CN1C(=O)c1ccccc1-n1nccn1 [Example 5, (2-(2H-1,2,3-triazol-2-yl)phenyl)((2R,5R)-5-(imidazo[1,2-a]pyrazin-8-ylthio)-2-methylpiperidin-1-yl)methanone] | 10.3 nM |
| Cc1cn2ccnc(O[C@@H]3CC[C@@H](C)N(C(=O)c4ccccc4-n4nccn4)C3)c2n1 [Example 6, (2-(2H-1,2,3-triazol-2-yl)phenyl)((2R,5R)-2-methyl-5-((2-methylimidazo[1,2-a]pyrazin-8-yl)oxy)piperidin-1-yl)methanone] | 8 nM |
| Cc1cn2ccnc(O[C@@H]3CC[C@@H](C)N(C(=O)c4ccsc4-n4nccn4)C3)c2n1 [Example 7, (2-(2H-1,2,3-triazol-2-yl)thiophen-3-yl)((2R,5R)-2-methyl-5-((2-methylimidazo[1,2-a]pyrazin-8-yl)oxy)piperidin-1-yl)methanone] | 27.4 nM |
| Cc1cn2ccnc(O[C@@H]3CC[C@@H](C)N(C(=O)c4cscc4-n4nccn4)C3)c2n1 [Example 8, (4-(2H-1,2,3-triazol-2-yl)thiophen-3-yl)((2R,5R)-2-methyl-5-((2-methylimidazo[1,2-α]pyrazin-8-yl)oxy)piperidin-1-yl)methanone] | 39.1 nM |
| Cc1cn2ccnc(O[C@@H]3CC[C@@H](C)N(C(=O)c4ccccc4C4(C#N)CC4)C3)c2n1 [Example 9, 1-(2-((2R,5R)-2-methyl-5-((2-methylimidazo[1,2-α]pyrazin-8-yl)oxy)piperidine-1-carbonyl)phenyl)cyclopropanecarbonitrile] | 13.2 nM |
| Cc1cn2ccnc(O[C@@H]3CC[C@@H](C)N(C(=O)c4ccc(F)cc4-n4nccn4)C3)c2n1 [Example 10, (4-fluoro-2-(2H-1,2,3-triazol-2-yl)phenyl)((2R,5R)-2-methyl-5-((2-methylimidazo[1,2-α]pyrazin-8-yl)oxy)piperidin-1-yl)methanone] | 31.2 nM |
| Cc1cn2ccnc(O[C@@H]3CC[C@@H](C)N(C(=O)c4ccccc4-n4ncnn4)C3)c2n1 [Example 11, (2-(2H-tetrazol-2-yl)phenyl)((2R,5R)-2-methyl-5-((2-methylimidazo[1,2-α]pyrazin-8-yl)oxy)piperidin-1-yl)methanone] | 22.2 nM |
| Cc1cn2ccnc(O[C@@H]3CC[C@@H](C)N(C(=O)c4ccccc4CS(C)(=O)=O)C3)c2n1 [Example 12, ((2R,5R)-2-methyl-5-((2-methylimidazo[1,2-α]pyrazin-8-yl)oxy)piperidin-1-yl)(2-((methylsulfonyl)methyl)phenyl)methanone] | 46.2 nM |
| Cc1cn2ccnc(O[C@@H]3CC[C@@H](C)N(C(=O)c4cscc4-c4ncccn4)C3)c2n1 [Example 13, ((2R,5R)-2-methyl-5-((2-methylimidazo[1,2-a]pyrazin-8-yl)oxy)piperidin-1-yl)(4-(pyrimidin-2-yl)thiophen-3-yl)methanone] | 63.7 nM |
| Cc1cn2ccnc(O[C@@H]3CC[C@@H](C)N(C(=O)c4ccsc4-c4ncccn4)C3)c2n1 [Example 14, ((2R,5R)-2-methyl-5-((2-methylimidazo[1,2-α]pyrazin-8-yl)oxy)piperidin-1-yl) (2-(pyrimidin-2-yl)thiophen-3-yl)methanone] | 36.8 nM |
| Cc1cn2ccnc(O[C@@H]3CC[C@@H](C)N(C(=O)c4cccnc4OCC(F)F)C3)c2n1 [Example 15, (2-(2,2-difluoroethoxy)pyridin-3-yl)((2R,5R)-2-methyl-5-((2-methylimidazo[1,2-a]pyrazin-8-yl)oxy)piperidin-1-yl)methanone] | 41.7 nM |
| Cc1cn2ccnc(O[C@@H]3CC[C@@H](C)N(C(=O)c4cccnc4OCC(F)(F)F)C3)c2n1 [Example 16, ((2R,5R)-2-methyl-5-((2-methylimidazo [1,2-α]pyrazin-8-yl)oxy)piperidin-1-yl) (2-(2,2,2-trifluoroethoxy)pyridin-3-yl)methanone] | 33.5 nM |
| Cc1cn2ccnc(O[C@@H]3CC[C@@H](C)N(C(=O)c4cccnc4-c4ccccc4)C3)c2n1 [Example 17, ((2R,5R)-2-methyl-5-((2-methylimidazo [1,2-α]pyrazin-8-yl)oxy)piperidin-1-yl) (2-phenylpyridin-3-yl)methanone] | 68.4 nM |
| Cc1cn2ccnc(O[C@@H]3CC[C@@H](C)N(C(=O)c4cccnc4-n4cccn4)C3)c2n1 [Example 18, (2-(1H-pyrazol-1-yl)pyridin-3-yl) ((2R,5R)-2-methyl-5-((2-methylimidazo[1,2-α]pyrazin-8-yl)oxy)piperidin-1-yl)methanone] | 58.7 nM |
| Cc1cn2ccnc(N[C@@H]3CC[C@@H](C)N(C(=O)c4ccccc4-n4nccn4)C3)c2n1 [Example 19, (2-(2H-1,2,3-triazol-2-yl)phenyl)((2R,5R)-2-methyl-5-((2-methylimidazo[1,2-a]pyrazin-8-yl)amino)piperidin-1-yl)methanone] | 50.9 nM |
| CC(C)c1cn2ccnc(O[C@@H]3CC[C@@H](C)N(C(=O)c4ccccc4-n4nccn4)C3)c2n1 [Example 20, (2-(2H-1,2,3-triazol-2-yl)phenyl)((2R,5R)-5-((2-isopropylimidazo[1,2-a]pyrazin-8-yl)oxy)-2-methylpiperidin-1-yl)methanone] | 49 nM |
| C[C@@H]1CC[C@@H](Oc2nccn3cc(C(F)(F)F)nc23)CN1C(=O)c1ccccc1-n1nccn1 [Example 21, (2-(2H-1,2,3-triazol-2-yl)phenyl)((2R,5R)-2-methyl-5-((2-(trifluoromethyl)imidazo[1,2-a]pyrazin-8-yl)oxy)piperidin-1-yl)methanone] | 63.7 nM |
| C[C@@H]1CC[C@@H](Nc2nccn3cc(C(F)(F)F)nc23)CN1C(=O)c1ccccc1-n1nccn1 [Example 22, (2-(2H-1,2,3-triazol-2-yl)phenyl)((2R,5R)-2-methyl-5-((2-(trifluoromethyl)imidazo[1,2-a]pyrazin-8-yl)amino)piperidin-1-yl)methanone] | 45.4 nM |
| C[C@@H]1CC[C@@H](Nc2nccn3cc(C(F)(F)F)nc23)CN1C(=O)c1ccsc1-n1nccn1 [Example 23, (2-(2H-1,2,3-triazol-2-yl)thiophen-3-yl) ((2R,5R)-2-methyl-5-((2-(trifluoromethyl)imidazo[1,2-α]pyrazin-8-yl)amino)piperidin-1-yl)methanone] | 99.3 nM |
